The values below come from patent publication US20260356803A1, “Nicotinamide derivatives” (Board of Regents, The University of Texas System, priority 2024, published 2026).

Where two headings read alike, the source gives them in different places.

One series concerns S462 cells. Nature of the series: Metabolism in S462 cells. It counts as cell-based, human. The settings on record: 500 nM compound. The method, then: We reasoned that 1 and 9 would likely be metabolized to 1-mononucleotide (1-MN) and 9-mononucleotide (9-MN) by NAMPT and then to 1-adenine dinucleotide (1-AD) and 9-adenine dinucleotide (9-AD) by NMNAT1. Thus, we analyzed extracts from cell-free reactions that co-incubate each compound with NAMPT, NMNAT1, PRPP, and ATP by high-resolution mass spectrometry to identify these putative metabolites based on exact mass. […] To test whether these compound metabolites were also produced in cells, we analyzed metabolic extracts from cells treated with either 1 or 9.
Prior to the experiment, cells were cultured in low-Nam DMEM for at least 1 passage (3 days) to deplete intracellular Nam. 15,000 cells were plated in a 96-well plate with 100 μL low-Nam media. At appropriate time points, 500 nM 1 or 9, or equal volume of vehicle (DMSO) were added using TECAN. 200 μL of acetonitrile with 0.1% formic acid were added to the assayed wells. For the 0-hour time point, compound or vehicle was added after the addition of acetonitrile and formic acid. […] The supernatants were filtered through 0.2 μm PVDF filters and analyzed by LC-MS/TOF. […]
Data analysis for TOF data was performed using SCIEX MultiQuant software version 3.0.3. For each of the compounds monitored, the theoretical exact m/z was calculated. […]

Series [1] has as its system human MPNST cell line S462. Kind of series: S462 cell viability (CellTiter-Glo, 72 h). The format is cell-based. Particulars: for IC50: read-out: IC50. The text has this:
This similarity, in addition to the scaffold's particular sensitivity to modifications around the pyridinyl ring led us to hypothesize that the activity of compounds 1 and 9 may depend on the concentration of Nam in the media. To test this hypothesis, we analyzed the activity of both compounds in media supplemented with increasing concentrations of Nam. […] Given that Nam inhibited compound activity, we considered Nam concentrations in basal culture conditions (DMEM supplemented with 10% fetal bovine serum or FBS) as compared to physiological levels. Nam levels in human serum are estimated to be in the 4 μM range.^5 In contrast, DMEM alone contains […] of Nam and the concentration in 10% FBS is expected to range between 0.574-1.56 μM.^6 To more closely reflect physiologic levels of Nam, we evaluated the activity of these compounds in cells grown in DMEM lacking Nam (Nam-free DMEM), so that the only exogenous Nam derives from 10% FBS. […] These observations indicate that the potency of these compounds is in the nanomolar range when tested in the presence of physiological levels of Nam.
We thus re-assessed the structure activity relationship of compound 21 analogs in Nam-free DMEM supplemented with or without 100 μM Nam (see appendix below: Synthesis, characterization and activity of micromolar and nanomolar active nicotinamide derivatives). […] Particularly notable, even in Nam-depleted conditions, all active analogs retained the same 3-pyridinyl ring as Nam, reinforcing the relationship between structural resemblance to Nam and compound efficacy.
In 96-well assay plates (Corning #2903), 2,000 cells were plated per well in 100 μL of medium and allowed to adhere overnight. The next day, compounds or Nam suspended in DMSO were dispensed to the assayed wells using a D300e Digital Dispenser (Tecan). All wells were normalized to 0.5% DMSO. 72 hours after incubation at 37 °C in 5% CO2, cell viability was assayed using an ATP-based luminescent viability assay, CellTiter-Glo (Promega #G8462). CellTiter-Glo substrate was mixed 1:1 with phosphate-buffered saline (PBS) supplemented with 1% Triton X-100, and 40 μL of this mixture was added to the assay wells. After the plates were shaken on a microplate shaker for 10 minutes at room temperature, luminescence was recorded using a Synergy 2 Microplate Reader or Cytation 5 plate reader (BioTek). In Prism 9 software (GraphPad), ten-point dose response curves were plotted with baseline-correction to the vehicle control well, and IC50 values were calculated by curve fitting using asymmetric (five parameter), least squares fit.
(ATP-based viability assays read luminescence as a measure of living cells.)

Series [2] relates to NMNAT1 or alcohol dehydrogenase. Kind of series: Counter screen with NMN in place of NAM. It counts as biochemical. The settings on record: role: inhibitor; 50 μM NMN substituted for NAM. On the procedure:
NAMPT activity was measured using a coupled-enzyme assay previously described [Revollo, 2014]. Briefly, reactions consisting of 50 mM Tris pH 8, 0.4 mM PRPP, 2.5 mM ATP, 12 mM MgCl2, 0.02% BSA, 1 μM NAMPT, 77 nM NMNAT1, 10 mM semicarbazide, 30 μg/ml alcohol dehydrogenase were set up in a 384-well plate (50 μl/well). […] The reactions were started by addition of 50 μM NAM. Fluorescence due to NADH formation by alcohol dehydrogenase was measured in a BioTek Cytation 5 plate reader (Agilent, USA) set up for excitation at λ=340 nm and detection of emission at λ=460 nm. To counter screen for NMNAT1 or alcohol dehydrogenase inhibition, the assay was set up above but substituting 50 μM NMN (substrate for NMNAT1) for NAM. No inhibition of was observed under these conditions.

Another series deals with primary mouse GBM cells. Particulars: screen of 200,000 synthetic compounds; cited from earlier work.
[3] abbreviates: Nam titration experiment, media without added Nam.
Setting [4] is: S462, commercial DMEM, highest dose tested 50 μM.
[5] abbreviates: addition of 100 μM exogenous Nam.

With `O=C(Nc1cccnc1)c1cccs1` [Compound 1, N-(pyridin-3-yl)thiophene-2-carboxamide], the “levels of parent compound over time in cells” value in the series on S462 cells is “time-dependent depletion”. Besides, the IC50 – broadly, the midpoint of a concentration-inhibition curve – was 1960 nM in series [1] (setting [3]), 1410 nM in series [1] (setting [4]), 6850 nM in series [1] (setting [5]) and 32300 nM in series [1] (addition of 1 mM exogenous Nam). Further, in series [2], the “inhibition in counter screen” value is recorded as “No inhibition”. In addition, the anti-proliferative activity result with primary mouse GBM cells is recorded as “hit”.

For the compound `O=C(Nc1cccs1)c1cccnc1` [Compound 9, N-(Thiophen-2-yl)nicotinamide], the “levels of parent compound over time in cells” value in the series on S462 cells was “time-dependent depletion”. In series [1] (10% FBS Nam-free DMEM), the “toxicity to S462” value is given as “toxic to S462”. Further, the rescue by nicotinamide result in series [1] (10% FBS Nam-free DMEM, comparison of vacor, 3-AP, tiazofurin and 9) is given as “rescued by nicotinamide”. Moreover, the “IC50 of 9 less than 3-AP” value in series [1] (10% FBS Nam-free DMEM, versus 3-AP) is 1823 fold. Moreover, the “IC50 of 9 less than tiazofurin” value in series [1] (10% FBS Nam-free DMEM, versus tiazofurin) is on record as 477 fold. Further, the “IC50 of 9 less than vacor” value in series [1] (10% FBS Nam-free DMEM, versus vacor) stood at 206 fold. Also, the IC50 in series [1] (setting [3]) was determined as 845 nM; in series [1] (Nam-free DMEM with 10% FBS), 9.17 nM; in series [1] (Nam-free DMEM, addition of 1.4 μM Nam), 51.4 nM; in series [1] (Nam-free DMEM, addition of 37 μM Nam) it was 1840 nM; in series [1] (setting [4]), 1200 nM; in series [1] (setting [5]) it was 4230 nM. Moreover, the IC50 in series [1] (addition of 1 mM exogenous Nam) was 35700 nM. Moreover, in series [1] (Nam-free DMEM versus basal medium), the “potency increase in Nam-free DMEM” value stood at 92 fold. Further, the “average increase in IC50 on NMNAT1 knockout” value in series [1] (S462, three independent NMNAT1 sgRNAs) is listed as 28.5 fold. Further, the “inhibition in counter screen” value in series [2] is given as “No inhibition”.
